Broadly, the half-life is how long it takes for the measured level to halve. Lower therefore signals fast loss. The Cmax is the highest concentration seen after dosing. As usually defined, the Tmax is the time from dosing to the highest level.

Where “and” joins values, the source holds several entries; their conditions need not be identical. Identical values can stand only once.

Data set [1] concerns naïve primary midbrain dopamine neurons. Kind of data set: Survival of naïve cultured dopamine neurons (TH-positive cell count). In kind it is cell-based, mouse. The method, then: We developed a compound library containing 20 diol derivatives and screened them on cultured primary DA neurons (Supplementary Materials, Table S1). Compounds were taken at a dose of 0.1 and 1 μM (based on effective doses for the epoxydiol). Based on the screening results, we selected four compounds and tested them in a naïve and MPP^+-treated (1-methyl-4-phenylpyridinium (MPP^+), the neurotoxic metabolite of MPTP) DA culture at 1, 10, and 100 nM to select the compound with the lowest effective dose.
The survival of cultured mouse DA neurons was assessed as described before. Briefly, naïve or MPP^+ (dopaminergic selective neurotoxin)-challenged embryonic midbrain neurons were cultured in the presence or absence of a diol-like compound. The number of survived DA neurons was estimated after immunocytochemical staining with antibodies recognizing the key enzyme of dopamine synthesis—tyrosine hydroxylase.

In data set [2] the test system is MPTP-lesioned C57BL/6 mice. As to the kind of experiment: DA and DOPAC levels in midbrain and striatum by HPLC-ED after MPTP lesion. In kind it is in vivo. The method, then: Neurochemical analyses via HPLC-ED were conducted as described before. Microdissected samples of the striatum (ST) and midbrain were homogenized in 300 and 400 µL of cold 0.6 M HClO4, respectively, using a motor-driven grinder (Z359971, Sigma-Aldrich, USA) and the homogenate was spun for 15 min at 12,000 rpm (+4 °C). The pellet was diluted in 1 mL of 0.1 M NaCl and used for protein quantitation by Bradford (Bio Rad, USA) according to the manufacturer’s protocol. The clear supernatant was diluted twice with pure water and used for assay of DA and […] (DOPAC) by HPLC on Luna C18(2) column (5 μm particle size, L × I.D. 75 × 4.6 mm, Phenomenex, Torrance, CA, USA) with electrochemical detection (750 mV, DECADE II™ Electrochemical Detector; Antec, The Netherlands). The standard mixes containing 1, 2, and 3 ng of DA and DOPAC were repeatedly assayed throughout the entire procedure and used to plot the calibration curves for each substance. The areas of peaks were estimated using LabSolution LG/GC software version 5.54 (Shimadzu Corporation, Japan) and calibrated against the calibrated curves for corresponding standards. The contents of DA and DOPAC were expressed nanogram (ng) per milligram (mg) of protein assayed by Bradford.

A short description of data set [3]: Pharmacokinetics in whole blood after a single oral dose (HPLC-MS/MS). The data set is classed as in vivo, CD1 IGS mice. Conditions: single oral 10 mg/kg. The method, then: Six CD1 IGS mice were administered orally with the compound PA96 in Tween 80 at doses of 10 mg/kg. Blood was collected from the tail after the amputation of a small distal piece. Time points were 5, 10, 30, 60, and 120 min after injection. Experimental blood samples were transferred into tubes for the precipitation of blood proteins with a mixture of zinc sulfate and methanol (2:8, v/v). A set of calibrators were prepared in advance, followed by their preparation protocol, and analyzed by HPLC-MS/MS for standard comparison. The calibration curve was built in the range of 25–2000 ng/mL. According to the signal-concentration profile, the content of PA96 in the experimental blood samples at each time point was calculated.
The stock solution of PA96 (1.0 mg/mL) was prepared by dissolving an accurately weighed amount of the substance in 100% methanol. To obtain a set of working solutions with concentrations of 0.01, 0.05, 0.1, 0.25, 0.5, 1, 2.5, 5, 7.5, 10, 15, and 20 µg/mL, the stock solution of PA96 was diluted with methanol. Calibration standards (calibrators) were prepared by mixing 10 μL of each individual working solution and 90 μL of mouse whole blood. Samples were stirred gently on an orbital shaker at 1000 rpm and left at 4 °C for 1 h for equilibration. The stock solution of IS with a concentration of 1.0 mg/mL was prepared by dissolving a weighed amount of 2-adamantylamine hydrochloride in pure methanol. The solution for the protein precipitation procedure was a mixture of 2 parts of 0.2 M aqueous solutions of zinc sulfate per 8 parts of a solution of IS in methanol with a concentration of 10 µg/mL. All solutions were stored at −18 °C and brought to their ambient temperature before use.
An aliquot of 10 µL of each whole blood sample was placed into an Eppendorf microtube (1.5 mL), then the precipitation solution of 50 µL was added to each tube. All samples were vortexed for 20–30 s and then centrifuged (Eppendorf MiniSpin, Eppendorf, Germany) for 10 min at 13,400 rpm. The supernatant was transferred into a chromatographic vial and analyzed.
The LC-MS/MS analysis was performed using an LC-20AD Prominence chromatograph equipped with an autosampler thermostated at +10 °C (Shimadzu, Japan) and a 3200 QTRAP mass spectrometer equipped with an ESI source (AB SCIEX, USA). Separation was achieved on a ProntoSil-120-5-C18 AQ column (2.0 × 75 mm, 5 μm particles, (EcoNova, Novosibirsk, Russia)) thermostated at +35 °C. The mobile phase was composed of water containing 0.1% formic acid (eluent A) and methanol containing 0.1% formic acid (eluent B). The gradient elution program was as follows: 0 min-10% (B); 0.5 min-10% (B); 7 min-98% (B); 9 min-98% (B); the flow rate was 200 μL/min.
The mass spectrometer was operated using multiple reaction monitoring (MRM) in positive ion mode. Ionization was conducted by applying a voltage of 5500 V, and the source temperature was set at +350 °C. For the analyte and IS, the optimized source parameters, viz. CUR (curtain gas), GS1 (Gas 1), and GS2 (Gas 2) were set at 20 psi. The CAD (collisionally activated dissociation) gas was nitrogen, and the parameter was set as high. The parameters of PA96, viz. MRM transitions, declustering potentials (DP), collision energies (CE), and collision cell exit potentials (CXP) are presented in Table 3. The dwell time was 100 msec. Analyst 1.6.2 software (AB SCIEX, USA) was used for instrument control and data acquisition, and MultiQuant 2.1 software (AB SCIEX, USA) was used for quantification. To calculate the main pharmacokinetic parameters, the Microsoft Excel–PKSolver was used.

Setting [4] is: CD1 IGS, mouse, whole blood, blood.

Consider `C=C(C)[C@@H]1CC=C(C)[C@@H](Sc2nc[nH]n2)[C@@H]1O` [PA96, (1R,2R,6S)-2-(1H-1,2,4-triazol-3-ylthio)-3-methyl-6-(prop-1-en-2-yl)cyclohex-3-enol], for which the “potency relative to epoxydiol in the survival assay” value in data set [1] (PA96 vs epoxydiol) was “up to 100 times”. The “effective concentration in survival assay for DA neurons” value in data set [1] (cultured DA neurons) is 1 nM and 1−10 nM. The “cytotoxicity in in vitro experiments” value in data set [1] (naive neurons and with MPP+) was “neither cytotoxic effect in naive neurons nor increased cytotoxicity”. Moreover, the “number of TH-positive neurons greater than in vehicle-treated wells” value in data set [1] (naïve neurons, 1 nM, p = 0.04) came to 40%. In addition, in data set [2], the “MPTP-induced reduction in DA level in the midbrain” value is recorded as “tended to alleviate”. Besides, the “DA and DOPAC concentrations in ST or midbrain” value in data set [2] (10 mg/kg) was “did not affect”. In data set [3] (CD1 IGS, mouse, whole blood, po, 10 mg/kg, blood), this compound returned a half-life of roughly 24 min. In data set [3] (setting [4]), the AUC0-t was found to be 278 ng·h/mL, the Cmax stood at 550 ng/mL and the Tmax is 5 min. Further, the AUC(0-inf) in data set [3] (CD1 IGS, mouse, whole blood, blood, read-out: AUC0-inf_obs) turned out to be 290 ng·h/mL. For the same compound, the MRT inf in data set [3] (CD1 IGS, mouse, whole blood, blood, read-out: MRT0-inf_obs (converted)) was 29.7 min. Moreover, in data set [3] (blood), the Cl/F_obs result is “(5.8 ± 0.6) × 10^−4 (mg/kg)/(ng/mL)/min” and the Vz/F_obs result is on record as “(18.9 ± 0.6) × 10^−3 (ml/kg)/(ng/mL)”. Moreover, the “time at which the minimum detectable concentration in blood was observed” value in data set [3] is recorded as 1 h.

The values are drawn from publication PMC9738927, “A Newly Identified Monoterpenoid-Based Small Molecule Able to Support the Survival of Primary Cultured Dopamine Neurons and Alleviate MPTP-Induced Toxicity In Vivo” (Molecules, 2022).
